Measured values published in ChEMBL document CHEMBL2401670, “Synthesis and biological evaluation of rhodanine derivatives bearing a quinoline moiety as potent antimicrobial agents” (Bioorg Med Chem Lett, 2013).
In brackets after ≈: the same amount, converted by molar mass.

Columns and labels:
[1] = system: Staphylococcus aureus; experiment: Antibacterial activity against quinolone-resistant Staphylococcus aureus CCARM 3519 after 24 hrs by broth microdilution method; assay type: functional; conditions: CCARM 3519, 24 h
[2] = system: Staphylococcus aureus; experiment: Antibacterial activity against quinolone-resistant Staphylococcus aureus CCARM 3505 after 24 hrs by broth microdilution method; assay type: functional; conditions: CCARM 3505, 24 h
[3] = system: Staphylococcus aureus; experiment: Antibacterial activity against methicillin-resistant Staphylococcus aureus CCARM 3506 after 24 hrs by broth microdilution method; assay type: functional; conditions: CCARM 3506, 24 h
[4] = system: Staphylococcus aureus; experiment: Antibacterial activity against methicillin-resistant Staphylococcus aureus CCARM 3167 after 24 hrs by broth microdilution method; assay type: functional; conditions: CCARM 3167, 24 h
[5] = system: Escherichia coli; experiment: Antibacterial activity against Escherichia coli CCARM 1356 after 24 hrs by broth microdilution method; assay type: functional; conditions: CCARM 1356, 24 h
[6] = system: Staphylococcus aureus; experiment: Antibacterial activity against Staphylococcus aureus KCTC 503 after 24 hrs by broth microdilution method; assay type: functional; conditions: KCTC 503, 24 h
[7] = system: Staphylococcus aureus; experiment: Antibacterial activity against Staphylococcus aureus KCTC 209 after 24 hrs by broth microdilution method; assay type: functional; conditions: KCTC 209, 24 h
[8] = system: Staphylococcus aureus; experiment: Antibacterial activity against Staphylococcus aureus RN4220 after 24 hrs by broth microdilution method; assay type: functional; conditions: RN4220, 24 h
[9] = system: HeLa; experiment: Cytotoxicity against human HeLa cells after 48 hrs by MTT assay; assay type: cell-based
[10] = system: Staphylococcus aureus; experiment: Ratio of moxifloxacin MIC to compound MIC for quinolone-resistant Staphylococcus aureus CCARM 3519; assay type: functional
[11] = system: Staphylococcus aureus; experiment: Ratio of moxifloxacin MIC to compound MIC for quinolone-resistant Staphylococcus aureus CCARM 3505; assay type: functional
[12] = system: Staphylococcus aureus; experiment: Ratio of gatifloxacin MIC to compound MIC for quinolone-resistant Staphylococcus aureus CCARM 3519; assay type: functional
[13] = system: Staphylococcus aureus; experiment: Ratio of gatifloxacin MIC to compound MIC for quinolone-resistant Staphylococcus aureus CCARM 3505; assay type: functional
[14] = system: Staphylococcus aureus; experiment: Ratio of norfloxacin MIC to compound MIC for quinolone-resistant Staphylococcus aureus CCARM 3519; assay type: functional
[15] = system: Staphylococcus aureus; experiment: Ratio of norfloxacin MIC to compound MIC for quinolone-resistant Staphylococcus aureus CCARM 3505; assay type: functional
[16] = system: Staphylococcus aureus; experiment: Ratio of norfloxacin MIC to compound MIC for methicillin-resistant Staphylococcus aureus CCARM 3506; assay type: functional
[17] = system: Staphylococcus aureus; experiment: Ratio of norfloxacin MIC to compound MIC for methicillin-resistant Staphylococcus aureus CCARM 3167; assay type: functional

SMILES | MIC [1] [µg/mL] | MIC [2] [µg/mL] | MIC [3] [µg/mL] | MIC [4] [µg/mL] | MIC [5] [µg/mL] | MIC [6] [µg/mL] | MIC [7] [µg/mL] | MIC [8] [µg/mL] | IC50 [9] [µg/mL] | Ratio [10] | Ratio [11] | Ratio [12] | Ratio [13] | Ratio [14] | Ratio [15] | Ratio [16] | Ratio [17]
O=C(O)[C@H](Cc1ccccc1)N1C(=O)/C(=C/c2cc3cc(OCc4ccccc4Br)ccc3nc2Cl)SC1=S | 2 (≈ 3.13 µM) | 2 (≈ 3.13 µM) | 2 (≈ 3.13 µM) | 2 (≈ 3.13 µM) | > 64 | 8 (≈ 12.5 µM) | 8 (≈ 12.5 µM) | 4 (≈ 6.25 µM) |  |  |  |  |  |  |  |  | 
O=C(O)[C@H](Cc1ccccc1)N1C(=O)/C(=C/c2cc3cc(OCc4ccc(Cl)cc4)ccc3nc2Cl)SC1=S | 2 (≈ 3.36 µM) | 2 (≈ 3.36 µM) | 2 (≈ 3.36 µM) | 2 (≈ 3.36 µM) | > 64 | 4 (≈ 6.72 µM) | 8 (≈ 13.4 µM) | 4 (≈ 6.72 µM) |  |  |  |  |  |  |  |  | 
O=C(O)[C@H](Cc1ccccc1)N1C(=O)/C(=C/c2cc3cc(OCc4ccccc4F)ccc3nc2Cl)SC1=S | 2 (≈ 3.45 µM) | 2 (≈ 3.45 µM) | 2 (≈ 3.45 µM) | 1 (≈ 1.73 µM) | > 64 | 8 (≈ 13.8 µM) | 64 (≈ 111 µM) | 4 (≈ 6.91 µM) |  |  |  |  |  |  |  |  | 
O=C(O)[C@H](Cc1ccccc1)N1C(=O)/C(=C/c2cc3cc(OCc4cccc(F)c4)ccc3nc2Cl)SC1=S | 2 (≈ 3.45 µM) | 1 (≈ 1.73 µM) | 1 (≈ 1.73 µM) | 2 (≈ 3.45 µM) | > 64 | 4 (≈ 6.91 µM) | 64 (≈ 111 µM) | 4 (≈ 6.91 µM) |  |  |  |  |  |  |  |  | 
O=C(O)[C@H](Cc1ccccc1)N1C(=O)/C(=C/c2cc3cc(OCc4ccc(F)cc4)ccc3nc2Cl)SC1=S | 4 (≈ 6.91 µM) | 2 (≈ 3.45 µM) | 2 (≈ 3.45 µM) | 2 (≈ 3.45 µM) | > 64 | 4 (≈ 6.91 µM) | 32 (≈ 55.3 µM) | 4 (≈ 6.91 µM) |  |  |  |  |  |  |  |  | 
Cc1ccc(COc2ccc3nc(Cl)c(/C=C4\SC(=S)N([C@@H](Cc5ccccc5)C(=O)O)C4=O)cc3c2)cc1 | 1 (≈ 1.74 µM) | 1 (≈ 1.74 µM) | 1 (≈ 1.74 µM) | 1 (≈ 1.74 µM) | > 64 | 8 (≈ 13.9 µM) | 8 (≈ 13.9 µM) | 2 (≈ 3.48 µM) | 13.3 (≈ 23.1 µM) | 4 | 4 | 4 | 4 | 4 | 4 | 4 | 4
CCC(C)[C@@H](C(=O)O)N1C(=O)/C(=C/c2cc3cc(OCc4ccccc4Cl)ccc3nc2Cl)SC1=S (stereo partly specified) | 2 (≈ 3.56 µM) | 2 (≈ 3.56 µM) | 1 (≈ 1.78 µM) | 2 (≈ 3.56 µM) | > 64 | 8 (≈ 14.2 µM) | 64 (≈ 114 µM) | 4 (≈ 7.12 µM) |  |  |  |  |  |  |  |  | 
CCC(C)[C@@H](C(=O)O)N1C(=O)/C(=C/c2cc3cc(OCc4cccc(Cl)c4)ccc3nc2Cl)SC1=S (stereo partly specified) | 2 (≈ 3.56 µM) | 1 (≈ 1.78 µM) | 1 (≈ 1.78 µM) | 2 (≈ 3.56 µM) | > 64 | 4 (≈ 7.12 µM) | > 64 | 2 (≈ 3.56 µM) |  |  |  |  |  |  |  |  | 
CCC(C)[C@@H](C(=O)O)N1C(=O)/C(=C/c2cc3cc(OCc4ccc(Cl)cc4)ccc3nc2Cl)SC1=S (stereo partly specified) | 2 (≈ 3.56 µM) | 2 (≈ 3.56 µM) | 1 (≈ 1.78 µM) | 1 (≈ 1.78 µM) | > 64 | 4 (≈ 7.12 µM) | 8 (≈ 14.2 µM) | 2 (≈ 3.56 µM) |  |  |  |  |  |  |  |  | 
CCC(C)[C@@H](C(=O)O)N1C(=O)/C(=C/c2cc3cc(OCc4ccccc4F)ccc3nc2Cl)SC1=S (stereo partly specified) | 2 (≈ 3.67 µM) | 2 (≈ 3.67 µM) | 1 (≈ 1.83 µM) | 2 (≈ 3.67 µM) | > 64 | 4 (≈ 7.34 µM) | 32 (≈ 58.7 µM) | 2 (≈ 3.67 µM) |  |  |  |  |  |  |  |  | 
CCC(C)[C@@H](C(=O)O)N1C(=O)/C(=C/c2cc3cc(OCc4cccc(F)c4)ccc3nc2Cl)SC1=S (stereo partly specified) | 2 (≈ 3.67 µM) | 2 (≈ 3.67 µM) | 1 (≈ 1.83 µM) | 2 (≈ 3.67 µM) | > 64 | 8 (≈ 14.7 µM) | 32 (≈ 58.7 µM) | 2 (≈ 3.67 µM) |  |  |  |  |  |  |  |  | 
CCC(C)[C@@H](C(=O)O)N1C(=O)/C(=C/c2cc3cc(OCc4ccc(F)cc4)ccc3nc2Cl)SC1=S (stereo partly specified) | 1 (≈ 1.83 µM) | 2 (≈ 3.67 µM) | 1 (≈ 1.83 µM) | 2 (≈ 3.67 µM) | > 64 | 4 (≈ 7.34 µM) | 2 (≈ 3.67 µM) | 1 (≈ 1.83 µM) |  |  |  |  |  |  |  |  | 
CCC(C)[C@@H](C(=O)O)N1C(=O)/C(=C/c2cc3cc(OCc4ccc(C)cc4)ccc3nc2Cl)SC1=S (stereo partly specified) | 2 (≈ 3.7 µM) | 2 (≈ 3.7 µM) | 2 (≈ 3.7 µM) | 2 (≈ 3.7 µM) | > 64 | 4 (≈ 7.39 µM) | 4 (≈ 7.39 µM) | 2 (≈ 3.7 µM) | 9.09 (≈ 16.8 µM) |  |  |  |  |  |  |  | 
CC(C)C[C@@H](C(=O)O)N1C(=O)/C(=C/c2cc3cc(OCc4ccccc4Cl)ccc3nc2Cl)SC1=S | 2 (≈ 3.56 µM) | 1 (≈ 1.78 µM) | 1 (≈ 1.78 µM) | 1 (≈ 1.78 µM) | > 64 | 8 (≈ 14.2 µM) | 4 (≈ 7.12 µM) | 1 (≈ 1.78 µM) |  |  |  |  |  |  |  |  | 
CC(C)C[C@@H](C(=O)O)N1C(=O)/C(=C/c2cc3cc(OCc4cccc(Cl)c4)ccc3nc2Cl)SC1=S | 2 (≈ 3.56 µM) | 2 (≈ 3.56 µM) | 2 (≈ 3.56 µM) | 1 (≈ 1.78 µM) | > 64 | 64 (≈ 114 µM) | 4 (≈ 7.12 µM) | 2 (≈ 3.56 µM) |  |  |  |  |  |  |  |  | 
CC(C)C[C@@H](C(=O)O)N1C(=O)/C(=C/c2cc3cc(OCc4ccc(Cl)cc4)ccc3nc2Cl)SC1=S | 1 (≈ 1.78 µM) | 1 (≈ 1.78 µM) | 1 (≈ 1.78 µM) | 1 (≈ 1.78 µM) | > 64 | 4 (≈ 7.12 µM) | 4 (≈ 7.12 µM) | 1 (≈ 1.78 µM) |  | 4 | 4 | 4 | 4 | 4 | 4 | 4 | 4
CC(C)C[C@@H](C(=O)O)N1C(=O)/C(=C/c2cc3cc(OCc4ccc(F)cc4)ccc3nc2Cl)SC1=S | 1 (≈ 1.83 µM) | 2 (≈ 3.67 µM) | 2 (≈ 3.67 µM) | 2 (≈ 3.67 µM) | > 64 | 8 (≈ 14.7 µM) | 8 (≈ 14.7 µM) | 2 (≈ 3.67 µM) |  |  |  |  |  |  |  |  | 
Cc1ccc(COc2ccc3nc(Cl)c(/C=C4\SC(=S)N([C@@H](CC(C)C)C(=O)O)C4=O)cc3c2)cc1 | 1 (≈ 1.85 µM) | 1 (≈ 1.85 µM) | 2 (≈ 3.7 µM) | 1 (≈ 1.85 µM) | > 64 | 8 (≈ 14.8 µM) | 8 (≈ 14.8 µM) | 1 (≈ 1.85 µM) | 8.84 (≈ 16.3 µM) |  |  |  |  |  |  |  | 
O=C(O)[C@H](Cc1ccccc1)N1C(=O)/C(=C/c2cc3cc(OCc4ccccc4Cl)ccc3nc2Cl)SC1=S | 2 (≈ 3.36 µM) | 2 (≈ 3.36 µM) | 2 (≈ 3.36 µM) | 2 (≈ 3.36 µM) | > 64 | 8 (≈ 13.4 µM) | 64 (≈ 107 µM) | 4 (≈ 6.72 µM) |  |  |  |  |  |  |  |  | 
O=C(O)[C@H](Cc1ccccc1)N1C(=O)/C(=C/c2cc3cc(OCc4cccc(Cl)c4)ccc3nc2Cl)SC1=S | 2 (≈ 3.36 µM) | 2 (≈ 3.36 µM) | 2 (≈ 3.36 µM) | 2 (≈ 3.36 µM) | > 64 | 8 (≈ 13.4 µM) | 64 (≈ 107 µM) | 2 (≈ 3.36 µM) |  |  |  |  |  |  |  |  | 
COc1c(N2CCNC(C)C2)c(F)cc2c(=O)c(C(=O)O)cn(C3CC3)c12 (stereo unspecified) [GATIFLOXACIN] | 4 (≈ 10.7 µM) | 8 (≈ 21.3 µM) | 1 (≈ 2.66 µM) | 2 (≈ 5.33 µM) | 16 (≈ 42.6 µM) | 4 (≈ 10.7 µM) | 2 (≈ 5.33 µM) | 0.25 (≈ 0.666 µM) |  |  |  |  |  |  |  |  | 
COc1c(N2C[C@@H]3CCCN[C@@H]3C2)c(F)cc2c(=O)c(C(=O)O)cn(C3CC3)c12 [MOXIFLOXACIN] | 4 (≈ 9.96 µM) |  |  |  | > 64 |  |  | 0.25 (≈ 0.623 µM) |  |  |  |  |  |  |  |  | 
CCn1cc(C(=O)O)c(=O)c2cc(F)c(N3CCNCC3)cc21 [NORFLOXACIN] | > 64 | > 64 | 4 (≈ 12.5 µM) | 8 (≈ 25.1 µM) | 16 (≈ 50.1 µM) | 2 (≈ 6.26 µM) | 2 (≈ 6.26 µM) | 2 (≈ 6.26 µM) |  |  |  |  |  |  |  |  | 
Cc1onc(-c2ccccc2)c1C(=O)N[C@@H]1C(=O)N2[C@@H]1SC(C)(C)[C@@H]2C(=O)O [OXACILLIN] | 1 (≈ 2.49 µM) | 1 (≈ 2.49 µM) | > 64 | > 64 | > 64 | 1 (≈ 2.49 µM) | 1 (≈ 2.49 µM) | 1 (≈ 2.49 µM) |  |  |  |  |  |  |  |  | 
